For orientation: ED50 means the midpoint of the dose-response relation.

Consider one compound from patent publication US20090118285A1, “USE OF KCNQ-OPENERS FOR TREATING OR REDUCING THE SYMPTOMS OF SCHIZOPHRENIA” (H. Lundbeck A/S, priority 2006, published 2009).

A value given as a limit tells only on which side of the number the result lay.

One series relates to KCNQ channels. The note with it: Wuttke et al. 2005; cited from earlier work.
Series [1] has as its system conditioned avoidance response in rats. Put plainly: Conditioned avoidance response in rats. In kind it is in vivo, rat. The settings on record: rats. The source says:
In the conditioned avoidance response (CAR) model, rats are trained to respond to a stimulus within a fixed time by moving from one place to another in order to avoid a footshock. Antipsychotics selectively suppress the avoidance response within a certain dose-range without suppressing escape behavior elicited by the appearance of the footshock. The CAR model is considered to be a predictive and reliable animal model that is sensitive to compounds with an antipsychotic potential.
Subjects. Male Wistar rats (Taconic, Denmark) weighing 150 g at the beginning of the study are used. The rats are housed ii pairs and maintained on a 12 h light/dark cycle (lights on 06:00). The animals are fed once daily (approx. 6 pellets/rat) in order to keep the rats at 80% of their free-feeding weight. Water is available ad libitum. Temperature (21±1° C.) and relative humidity (55±5%) are automatically controlled.
Experimental procedure. Conditioned avoidance testing is conducted using four automated shuttle-boxes (ENV-010M, MED-Associates) each placed in a sound-attenuated chamber. Each box is divided into two compartments by a partition with an opening. The position of the animal and crossings from one compartment to the other are detected by two photocells placed on either side of the dividing wall. Upon presentation of the conditioned stimuli (CS), tone and light, the animals have 10 s to cross to the other compartment of the shuttle-box in order to turn the CS off (end the trial) and avoid the appearance of the unconditioned stimulus (UCS). If the rat remains in the same compartment for more than 10 s, the UCS is presented as 0.5 mA scrambled foot-shocks until escape is performed or 10 s in maximal duration. The following behavioural variables are evaluated: avoidance (response to CS within 10 s); escape (response to CS+UCS); escape failures (failure to respond); intertrial crosses and locomotor activity. The rats are habituated to the shuttle-box 3 min before each test session. During training each test session consists of 30 trials with intertrial intervals varying randomly between 20 s and 30 s. Training is carried until the rats display an avoidance of 80% or more, on 3 consecutive days. A test is preceded by a pre-test the day before giving rise to a baseline value for each animal, thus the animals serve as their own control. Seven to eight rats are used at each dose level. A parallel control group receiving the vehicle of the test compound is also included.
Administration of compound.
Statistical analyses. The effects of compounds on avoidance and escape failure behaviours were statistically evaluated by means of a two-way repeated measures ANOVA followed by post hoc comparisons (Student-Newman-Keuls Method) when appropriate. P-levels <0.05 were considered statistically significant.

The nature of a further series: in vivo. The note with it: Wistar, rat, sc.
The test system of series [2] is DA levels in the nucleus accumbens. Put plainly: Microdialysis: DA levels in the nucleus accumbens of freely moving rats. In kind it is in vivo, rat. The settings on record: no amphetamine provocation, data not shown.
Series [3] has the same test system. The series is described as above. In kind it is in vivo, rat. The settings on record: 8.1 mg/kg s.c. The source says:
It is well-known that psychostimulants increase locomotor activity via an increase in extracellular DA levels in the nucleus accumbens, which is the terminal area of the mesolimbic DA projections (Guix et al., 1992, Neurosci. Lett., 138(1), 137-140; Moghaddam et al., 1989, Synapse, 4(2), 156-161). It is also known, that the antagonistic effect of antipsychotics on stimulant-induced hyperlocomotion is related to the effect of antipsychotics to inhibit the stimulated DA levels in the nucleus accumbens (Broderick et al., 2004, Prog. Neuropsychopharmacology and Biol. Psych., 28, 157-171). Thus, the nucleus accumbens is an accepted neuroanatomical site for testing reversal of positive symptoms of psychosis. […] The experiments were conducted such that the data may be associated with the behavioural data obtained above.
Subjects. Male Sprague-Dawley rats (Charles River), initially weighing 275-300 g, were used. The animals were housed under a 12-hr light/dark cycle under controlled conditions for regular in-door temperature (21±2° C.) and humidity (55±5%) with food and tap water available ad libitum.
Surgery. Animals were anaesthetized with hypnorm/dormicum (2 ml/kg s.c.) and intracerebral guide cannulas (CMA/12) were stereotaxically implanted, positioning the dialysis probe tip in the nucleus accumbens (co-ordinates: […] anterior to bregma, —1.2 mm lateral to bregma, 8.0 mm ventral to the dura). Anchor screws and acrylic cement was applied for fixation of the guide cannula. The body temperature of the animals was maintained at 37° C. by means of a rectal probe and a heating plate. The rats were allowed to recover from surgery for 2 days, housed singly in cages.
Experimental procedure. On the day of the experiment, a microdialysis probe (CMA/12, 0.5 mm diameter, 2 mm length) was inserted through the guide cannula of the conscious animal. The probes were connected to a microinjection pump via a dual channel swivel which allowed the animals unrestricted movements. Perfusion of the microdialysis probe with filtered Ringer solution (145 mM NaCl, 3 mM KCl, 1 mM MgCl2, 1.2 mM CaCl2) was maintained for the duration of the experiment at a constant flow rate of 1 μL/min. After 180 min of stabilisation, the experiments were initiated. Dialysates were collected every 20 min. After the experiments the rats were sacrificed by decapitation, their brains removed, frozen and sliced for probe placement verification.
Administration of compounds. […] Thirty min after the first administration dex-amphetamine sulphate (0.5 mg/kg s.c.) was administered.
Analysis of dialysate. The concentration of dopamine (DA) in the dialysates was assessed by means of HPLC with electrochemical detection. The dialysate constitutents were separated by reverse phase liquid chromatography (ODS 150×3 mm, […]). Mobile phase consisted of 90 mM NaH2PO4, 50 mM sodium citrate, 367 mg/l sodium 1-octanesulfonic acid, 50 μM EDTA and 8% acetonitrile (pH 4.0) at a flow rate of 0.5 ml/min. Electrochemical detection of DA was accomplished using a coulometric detector; potential set at E1=−75 mV and E2=300 mV (guard cell at 350 mV) (Coulochem II, ESA). The dialysate levels of DA in the three dialyse samples preceding the administration of compound were averaged and used as baseline level of DA (100%)

A short description of series [4]: Inhibition of baseline motility in vehicle-pretreated, vehicle-challenged mice. The settings on record: NMRI, mouse, in vivo.
Series [5] has as its system dopaminergic neurons in the ventral tegmental area. The settings on record: ex vivo (Hansen et al. 2005); cited from earlier work.

Consider `CCOC(=O)Nc1ccc(NCc2ccc(F)cc2)cc1N`, for which the “Binding to KCNQ channels” value in the series with KCNQ channels was “bind to KCNQ channels”. Besides, the “% inhibition of avoidance. Relative to baseline.” value is on record as 1% in series [1] (5 mg/kg s.c. 30 min before the test) and 59% in series [1] (10 mg/kg s.c. 30 min before the test). Further, the “Escape failures (effect on motor performance)” value in series [1] (all tested doses, data not shown) is “None of the tested doses caused any incidences of escape failures”. In the series “in vivo”, this compound showed an ED50 at 2 h of more than 8.1 mg/kg. The “Effect on basal extracellular DA level in the nucleus accumbens” value in series [2] was “merely provoked levels of DA were affected, but not basal levels of DA”. Also, the “DA level in the nucleus accumbens, amphetamine + compound” value is given as 96 ± 6 % of baseline in series [3] (time 0 min, freely moving rats); 160 ± 11 % of baseline in series [3] (time 20 min, amphetamine 0.5 mg/kg s.c. 30 min after compound); 241 ± 33 % of baseline in series [3] (time 40 min, amphetamine 0.5 mg/kg s.c. 30 min after compound); 221 ± 26 % of baseline in series [3] (time 60 min, amphetamine 0.5 mg/kg s.c. 30 min after compound); 217 ± 14 % of baseline in series [3] (time 80 min, amphetamine 0.5 mg/kg s.c. 30 min after compound); 173 ± 9 % of baseline in series [3] (time 100 min, amphetamine 0.5 mg/kg s.c. 30 min after compound). In addition, the “DA level in the nucleus accumbens, amphetamine + compound” value is on record as 139 ± 9 % of baseline in series [3] (time 120 min, amphetamine 0.5 mg/kg s.c. 30 min after compound); 120 ± 9 % of baseline in series [3] (time 140 min, amphetamine 0.5 mg/kg s.c. 30 min after compound); 99 ± 6 % of baseline in series [3] (time −20 min, freely moving rats); 105 ± 3 % of baseline in series [3] (time −40 min, freely moving rats). Also, in series [4], the ED50 at 30 min amounted to 7.6 mg/kg. Besides, the “Firing of dopaminergic neurons in the ventral tegmental area” value in series [5] was “suppress the firing of dopaminergic neurons in the ventral tegmental area ex vivo”.
